“Also recorded” adds a separate entry of the source. Where two headings read alike, the source gives them in different places.
What was measured:
[1] = tested on: HCV (recombination virus strain J6/JFH/JC); experiment: Anti-HCV activity in Huh7.5 cells, intracellular HCV RNA by real-time RT-PCR; format: cell-based, hepatitis C virus (HCV); conditions: for EC50: anti-HCV activity, 72 h, HCV RNA by RT-PCR
Experimental: (§1) All of the synthesized compounds were examined for their anti-HCV activity and cytotoxicity in Huh 7.5 cells using specific real-time RT-PCR assay, as described in our previous publication. Anti-HCV activity was evaluated by measuring both EC50 (for anti-HCV activity) and CC50 (for cytotoxicity) values. As a key indication, the selectivity index (SI) was calculated as a ratio of CC50 to EC50. Anti-HCV activity of the study compound was estimated by combining its EC50 value with SI.
Huh7.5 cells were seeded into 96-well or 6-well plates (Costar) at a density of 3×10^4 cells/cm^2. After 24 h incubation, the cells were infected with HCV viral stock (recombination virus strain J6/JFH/JC, 45 IU/cell) and simultaneously treated with the test compounds at various concentrations.
(§2) Concentrations or solvent as the control. The culture medium was removed after 72 h incubation, the intracellular total RNA (in 96-well plates) was extracted with RNeasy Mini Kit (Qiagen), and total intracellular proteins (in 6-well plates) were extracted with Cyto-Buster Protein Extraction Reagent added with 1 mM protease inhibitor cocktail. The intracellular HCV RNA was quantified with a real time one-step reverse-transcription polymerase chain reaction (RT-PCR). HCV core protein was detected with western blot (see below).

Huh7.5 cells = experiment: Cytotoxicity assay (MTT) in Huh7.5 cells; format: cell-based, Human
Experimental: as §1
Huh7.5 cells were seeded into 96-well plates (Costar) at a density of 3×10^4 cells/cm^2. After 24 h incubation. Fresh culture medium containing test compounds at various concentrations were added. 72 h later, Cytotoxicity was evaluated with 3-(4,5-Dimethylthiazol-2-yl)-2,5-diphenyltetrazolium bromide (MTT).

Hsc70 = Hsc70 protein expression in Huh7.5 cells (Western blot); format: cell-based, Human; conditions: Huh7.5 cells, 31.25, 62.5, 125 and 250 µg/mL, 72 h
Experimental: as §2
The extracted total protein were denatured by adding 5× loading buffer (250 mM Tris-HCl, pH 6.8, 5% dithiothreitol, 10% SDS, 0.5% bromophenol blue, 50% glycerol), followed by boiling for 10 min. Proteins were analyzed with SDS-PAGE, then transfered onto nitrocellulose membranes by electroblotter. The membranes were blocked in 5% nonfat dry milk in TBS-T solusion (20 mM Tris, 150 mM NaCl, 0.1% Tween-20) for 1 h, and washed three times for 10 min each in the TBS-T. Membrane samples were probed with monoclonal antibody specific for protein of HCV core or Hsc70. As a control, monoclonal antibody to actin was used. […] Protein was detected using Immbilon Western Chemiluminescent HRP Substrate (Millipore Inc.) with Alpha Innotech Focus and Image Acquisition.

HCV NS3/4A protease = target: T1, HCV NS3/4A protease (Hepatitis C virus genotype 2a, UniProt Q99IB8); format: biochemical; conditions: 250 µg/mL, in the lysates
T1 construct: HCV NS3/4A protease activity (Michaelis constant Km = 0.60 µM) in the lysates; endogenous in cells; host or cells: lysates

HCV = conditions: Huh7.5 cells
Source text: To further confirm the mode of action for the activity against HCV, down-regulation of Hsc70 expression by 7c was also examined by Western Blot.

HCV NS3 = experiment: Intracellular HCV NS3 protein level in infected Huh7.5 cells (Western blot); format: cell-based, hepatitis C virus (HCV)
[2] = Single dose toxicity test in mice; conditions: for effect on body weight: i.g single dose 250, 500 or 1000 mg/kg (data not shown); for mortality: i.g single dose 250, 500 or 1000 mg/kg, 7 days; for LD50: oral (i.g) single dose, monitored 7 days
Experimental: Single dose toxicity tests for 7c and 7m were carried out in mice as well. After 7c or 7m was given by intragastric administration (i.g) at a dose of 250, 500 or 1000 mg/kg, the mice were closely monitored for 7 days.
Animals were purchased from the Institute of Laboratory Animal Sciences, Chinese Academy of Medical Sciences and Peking Union Medical College, Beijing, China. All experimental procedures were approved by Biomedical Ethics Committee of Chinese Academy of Medical Sciences of animal use and protection. The mice were cared according to the institutional guidelines of the Chinese Academy of Medical Sciences. Male and female KunMing mice with weight of 22.0±1.0 g were fed with regular chow and housed in an air-conditioned room. The mice were randomly divided into five groups with 10 mice each (five male plus five female). The each group of mice were administrated orally 7c and 7m at 0 (saline as control), 500 or 1000 mg/kg, respectively. The test compounds were given in a single-dosing. Body weight as well as survival was closely monitored.

[3] = Oral pharmacokinetics in male ICR mice; conditions: for MRT / t1/2 / AUC 0−t / Cmax / Tmax: oral (ig) 25 mg/kg; for Cmax / Tmax: plasma
Experimental: The study compounds were given to male ICR mice via oral (ig, 25 mg/kg) route.
Male male ICR mice (20–40 g) were obtained from SLAC Laboratory Animal Inc. (Shanghai, China). Three male ICR mice were used in each study. Each of them was dosed with a tested compound at 25 mg/kg via oral administration. Nine blood samples were collected at 0, 0.25, 0.50, 1.0, 2.0, 4.0, 6.0 and 24 h and were immediately centrifuged to separate the plasma fractions. The separated plasma samples were stored at –20°C for analysis. Concentration-versus-time profiles were obtained for each analyte, and standard non-compartmental analysis was performed on the data using WinNonlin software, version 5.3, to recover the AUC and other non-compartmental parameters.

[4] = cytotoxicity, Huh7.5 cells, MTT, 72 h, read-out: CC50

T1 sequence (Q99IB8 1662-1715): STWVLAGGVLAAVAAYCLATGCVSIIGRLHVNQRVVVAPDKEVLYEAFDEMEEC
T1 sequence (Q99IB8 1031-1661): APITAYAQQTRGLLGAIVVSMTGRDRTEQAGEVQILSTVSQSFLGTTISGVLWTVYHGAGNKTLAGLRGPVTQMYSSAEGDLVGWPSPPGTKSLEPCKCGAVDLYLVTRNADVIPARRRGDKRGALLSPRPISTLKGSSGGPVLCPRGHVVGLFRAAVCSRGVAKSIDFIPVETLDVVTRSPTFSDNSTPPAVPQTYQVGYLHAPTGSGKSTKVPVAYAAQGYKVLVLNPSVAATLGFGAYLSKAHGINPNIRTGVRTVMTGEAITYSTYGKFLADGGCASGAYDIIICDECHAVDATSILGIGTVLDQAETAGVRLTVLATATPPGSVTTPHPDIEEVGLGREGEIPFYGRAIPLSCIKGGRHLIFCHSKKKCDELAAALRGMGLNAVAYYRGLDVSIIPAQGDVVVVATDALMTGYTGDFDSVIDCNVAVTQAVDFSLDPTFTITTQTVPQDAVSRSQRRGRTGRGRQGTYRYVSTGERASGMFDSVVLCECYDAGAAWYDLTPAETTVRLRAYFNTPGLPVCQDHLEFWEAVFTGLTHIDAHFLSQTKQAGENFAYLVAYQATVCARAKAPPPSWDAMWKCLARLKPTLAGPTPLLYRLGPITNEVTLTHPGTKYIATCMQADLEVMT

Structure (SMILES) | SI (selectivity index, CC50/EC50) [1] | EC50 [1] [µM] | CC50 (Huh7.5 cells) [mM] | other results
O=C(O)CCC[C@@H]1[C@H]2CCCN3CCC[C@@H](CN1Cc1ccccc1F)[C@@H]23 [Compound 7d, 12-N-2-Fluorobenzyl matrinic acid] | 19.0 | 87.4 | 1.66 | 
O=C(O)CCCC1C2CCCN3CCCC(CN1Cc1ccc(F)cc1)C23 (stereo not drawn) [Compound 12e, 12-N-4-Flurobenzyl sophoridinic acid] | 10.4 | 108 | 1.12 | 
Cc1cccc(CN2C[C@@H]3CCCN4CCC[C@@H]([C@H]34)[C@H]2CCCC(=O)O)c1 [Compound 7b, 12-N-3-Methylbenzyl matrinic acid] | 9.0 | 266 | 2.39 | 
O=C(O)CCCC1C2CCCN3CCCC(CN1Cc1ccccc1Cl)C23 (stereo not drawn) [Compound 7g, 12-N-2-Chlorobenzyl matrinic acid] | 7.3 | 176 | 1.29 | 
O=C(O)CCCC1C2CCCN3CCCC(CN1Cc1cccc(F)c1)C23 (stereo not drawn) [Compound 7e, 12-N-3-Fluorobenzyl matrinic acid] | 8.4 | 168 | 1.41 | 
O=C(O)CCCC1C2CCCN3CCCC(CN1Cc1ccc(F)cc1)C23 (stereo not drawn) [Compound 7f, 12-N-4-Fluorobenzyl matrinic acid] | >15.1 | 176 | > 2.67 | 
O=C(O)CCC[C@@H]1[C@H]2CCCN3CCC[C@@H](CN1Cc1ccc(OC(F)(F)F)cc1)[C@@H]23 [Compound 7n, 12-N-4-Trifluoromethoxybenzyl matrinic acid] | 15.5 | 88.5 | 1.38 | 
Cc1ccc(CN2CC3CCCN4CCCC(C2CCCC(=O)O)C34)cc1 (stereo not drawn) [Compound 7c, 12-N-4-Methylbenzyl matrinic acid] |  | 51.1 |  | Hsc70 protein expression (Hsc70): afforded activity in down-regulating Hsc70 protein expression; also recorded: decreased dose-dependently; HCV NS3/4A protease activity after treatment (HCV NS3/4A protease): not altered; improvement in anti-HCV activity as compared to 1 [1]: 2 fold; CC50 (Huh7.5 cells; [4]): > 2.7 mM; therapeutic efficacy before, at and after infection (HCV): anti-HCV pattern close to that of 7m; HCV NS3 level (HCV NS3; Huh7.5 cells, 62.5 µg/mL): significantly reduced; intracellular HCV-NS3 protein (HCV NS3; Huh7.5 cells, 31.25, 62.5, 125 and 250 µg/mL, 72 h): decreased dose-dependently; effect on body weight [2]: no effect; mortality [2]: No mouse died; LD50 [2]: > 1000 mg/kg; MRT [3]: 100.8 min; t1/2 [3]: 90 min; AUC 0−t ([3]; 0 to 24 h): 13.4 µM·h; Cmax [3]: 13.2 µM; Tmax [3]: 15 min
O=C(O)CCCC1C2CCCN3CCCC(CN1Cc1ccc(Cl)cc1)C23 (stereo not drawn) [Compound 7i, 12-N-4-Chlorobenzyl matrinic acid] | 18.4 | 136 | 2.5 | 
COc1ccc(CN2CC3CCCN4CCCC(C2CCCC(=O)O)C34)cc1 (stereo not drawn) [Compound 12a, 12-N-4-Methoxybenzyl sophoridinic acid] | 18.5 | 57.5 | 1.06 | 
O=C(O)CCCC1C2CCCN3CCCC(CN1Cc1ccccc1F)C23 (stereo not drawn) [Compound 12d, 12-N-2-Flurobenzyl sophoridinic acid] | <1.7 | > 890 | 1.55 | 
Cc1ccc(CN2CC3CCCN4CCCC(C2CCCC(=O)O)C34)cc1 (stereo not drawn) [Compound 12c, 12-N-4-Methylbenzyl sophoridinic acid] | 4.4 | 503 | 2.2 | 
Cc1ccccc1CN1CC2CCCN3CCCC(C1CCCC(=O)O)C23 (stereo not drawn) [Compound 7a, 12-N-2-Methylbenzyl matrinic acid] | 5.6 | 203 | 1.13 | 
O=C(O)CCCC1C2CCCN3CCCC(CN1Cc1cccc(Cl)c1)C23 (stereo not drawn) [Compound 7h, 12-N-3-Chlorobenzyl matrinic acid] | >28.9 | 88.5 | > 2.56 | anti-HCV activity (in words) [1]: slight improvement in comparison to the lead
O=C(O)CCCC1C2CCCN3CCCC(CN1Cc1ccc(Br)cc1)C23 (stereo not drawn) [Compound 7l, 12-N-4-Bromobenzyl matrinic acid] | 10.3 | 119 | 1.23 | 
O=C(O)CCCC1C2CCCN3CCCC(CN1Cc1ccc(Cl)c(Cl)c1)C23 (stereo not drawn) [Compound 7j, 12-N-3,4-Dichlorobenzyl matrinic acid] | 3.7 | 268 | 1.01 | 
O=C(O)CCCC1C2CCCN3CCCC(CN1Cc1cccc4ccccc14)C23 (stereo not drawn) [Compound 7o, 12-N-1-Naphthylmethylenyl matrinic acid] | <1.6 | > 821 | 1.3 | anti-HCV activity (in words) [1]: lost the activity completely
O=C(O)CCCC1C2CCCN3CCCC(CN1Cc1ccc(OC(F)(F)F)cc1)C23 (stereo not drawn) [Compound 12f, 12-N-4-Trifluoromethoxybenzyl sophoridinic acid] | 12.7 | 11.1 | 0.141 | 
Cc1cccc(CN2CC3CCCN4CCCC(C2CCCC(=O)O)C34)c1 (stereo not drawn) [Compound 12b, 12-N-3-Methylbenzyl sophoridinic acid] | 2.9 | 453 | 1.32 | 
C=Cc1ccc(CN2C[C@@H]3CCCN4CCC[C@@H]([C@H]34)[C@H]2CCCC(=O)O)cc1 [Compound 7m, 12-N-4-Vinylbenzyl matrinic acid] | 39.2 | 4.7 |  | HCV NS3/4A protease activity after treatment (HCV NS3/4A protease): not altered; CC50 (Huh7.5 cells; [4]): 0.184 mM; therapeutic efficacy before, at and after infection (HCV): effective before, at and after HCV infection; effect on body weight [2]: no effect; mortality [2]: No mouse died; LD50 [2]: over 1000 mg/kg; Cmax relative to that of 7c ([3]; oral 25 mg/kg): 1.8 fold; AUC relative to that of 7c ([3]; oral 25 mg/kg, 0 to 24 h): approximately 2 fold; MRT [3]: 99 min; t1/2 [3]: 120.6 min; AUC 0−t ([3]; 0 to 24 h): 25.9 µM·h; Cmax [3]: 23.2 µM; Tmax [3]: 30 min
O=C(O)CCCC1C2CCCN3CCCC(CN1Cc1ccc(Cl)cc1Cl)C23 (stereo not drawn) [Compound 7k, 12-N-2,4-Dichlorobenzyl matrinic acid] | 1.3 | 460 | 0.578 | 

Reference: article PMC3597726, “N-Substituted Benzyl Matrinic Acid Derivatives Inhibit Hepatitis C Virus (HCV) Replication through Down-Regulating Host Heat-Stress Cognate 70 (Hsc70) Expression” (PLoS ONE, 2013)
